Legend:
HepG2 [1] = assay: Induction of SREBP-1c mRNA expression in human HepG2 cells at 5 uM relative to control; format: functional
HepG2 [2] = assay: Induction of ABCA1 mRNA expression in human HepG2 cells at 5 uM relative to control; format: functional
HepG2 [3] = assay: Ratio of induction of ABCA1 mRNA expression to SREBP-1c mRNA expression in human HepG2 cells at 5 uM; format: functional
[4] = target: T1, Oxysterols receptor LXR-beta (Homo sapiens, UniProt P55055); assay: Agonist activity at Gal4-tagged LXRbeta (unknown origin) expressed in CHOK1 cells after 24 hrs by luciferase reporter gene assay; format: cell-based, CHO-K1
T1 sequence (P55055 whole entry): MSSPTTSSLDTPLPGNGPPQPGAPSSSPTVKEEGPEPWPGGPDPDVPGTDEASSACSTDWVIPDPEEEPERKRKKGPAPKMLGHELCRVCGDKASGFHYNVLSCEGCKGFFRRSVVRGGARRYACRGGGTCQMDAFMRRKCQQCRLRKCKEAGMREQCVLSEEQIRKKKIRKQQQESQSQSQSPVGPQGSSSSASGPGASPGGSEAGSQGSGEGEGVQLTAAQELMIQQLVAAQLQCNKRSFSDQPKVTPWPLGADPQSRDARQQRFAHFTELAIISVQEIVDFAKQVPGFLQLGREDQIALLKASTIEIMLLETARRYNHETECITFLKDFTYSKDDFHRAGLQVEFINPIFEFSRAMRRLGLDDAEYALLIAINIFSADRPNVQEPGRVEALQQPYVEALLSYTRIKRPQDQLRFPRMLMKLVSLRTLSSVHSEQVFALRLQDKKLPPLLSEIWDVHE

[5] = target: T2, Oxysterols receptor LXR-alpha (Homo sapiens, UniProt Q13133); assay: Agonist activity at Gal4-tagged LXRalpha (unknown origin) expressed in CHOK1 cells after 24 hrs by luciferase reporter gene assay; format: cell-based, CHO-K1
T2 sequence (Q13133 whole entry): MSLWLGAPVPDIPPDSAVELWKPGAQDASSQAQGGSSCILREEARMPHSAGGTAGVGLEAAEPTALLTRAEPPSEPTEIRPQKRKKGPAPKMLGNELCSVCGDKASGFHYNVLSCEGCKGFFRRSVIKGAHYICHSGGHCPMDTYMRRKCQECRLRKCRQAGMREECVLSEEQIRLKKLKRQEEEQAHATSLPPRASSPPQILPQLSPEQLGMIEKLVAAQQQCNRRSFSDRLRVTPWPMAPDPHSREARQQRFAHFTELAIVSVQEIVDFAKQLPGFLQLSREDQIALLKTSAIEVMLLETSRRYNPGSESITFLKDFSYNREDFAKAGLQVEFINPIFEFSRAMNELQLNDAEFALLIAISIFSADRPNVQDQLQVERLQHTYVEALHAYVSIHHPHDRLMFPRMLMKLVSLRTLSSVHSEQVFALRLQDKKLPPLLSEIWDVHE

Hamster [6] = assay: Effect on HDL-C level in high-fat-and-cholesterol diet fed Male Bio F1B hamster plasma at 3 to 10 mg/kg, po relative to control; format: functional, Cricetinae; settings: dose mg/kg 3-10
Hamster [7] = assay: Effect on Plasma triglyceride level in high-fat-and-cholesterol diet fed Male Bio F1B hamster at 3 to 10 mg/kg, po relative to control; format: organism-based; parameters: dose 3-10 mg/kg, route oral; settings: cricetinae, in vivo
Hamster [8] = assay: Effect on area of lipid accumulation in high-fat-and-cholesterol diet fed Male Bio F1B hamster aortic arch at 10 mg/kg, po relative to control; format: functional, Cricetinae
Hamster [9] = assay: Effect on total cholesterol level in high-fat-and-cholesterol diet fed Male Bio F1B hamster plasma at 3 mg/kg, po relative to control; format: functional, Cricetinae
Hamster [10] = assay: Effect on Plasma triglyceride level in high-fat-and-cholesterol diet fed Male Bio F1B hamster at 10 mg/kg, po relative to control; format: organism-based; parameters: dose 10 mg/kg, route oral; settings: cricetinae, in vivo
Hamster [11] = assay: Effect on HDL-C level in high-fat-and-cholesterol diet fed Male Bio F1B hamster plasma at 10 mg/kg, po relative to control; format: functional, Cricetinae
Hamster [12] = assay: Effect on total cholesterol level in high-fat-and-cholesterol diet fed Male Bio F1B hamster plasma at 10 mg/kg, po relative to control; format: functional, Cricetinae
Hamster [13] = assay: Effect on Plasma triglyceride level in high-fat-and-cholesterol diet fed Male Bio F1B hamster at 3 mg/kg, po relative to control; format: organism-based; parameters: dose 3 mg/kg, route oral; settings: cricetinae, in vivo
Hamster [14] = assay: Effect on HDL-C level in high-fat-and-cholesterol diet fed Male Bio F1B hamster plasma at 3 mg/kg, po relative to control; format: functional, Cricetinae
Hamster [15] = assay: Effect on area of lipid accumulation in high-fat-and-cholesterol diet fed Male Bio F1B hamster aortic arch at 3 mg/kg, po relative to control; format: functional, Cricetinae

CCN(CC)c1ccc2c(C(F)(F)F)cc(=O)oc2c1
fold change (FC) (HepG2 [1]): 3.3 | fold change (FC) (HepG2 [2]): 1.3 | Ratio (HepG2 [3]): 0.4

CCCc1c(OCCCCN2C(=O)CN(C)C2=O)ccc2c(C(F)(F)F)cc(=O)oc12
EC50 ([4]; read-out: EC50): 1300 nM

O=C(O)Cc1cccc(OCCCN(Cc2cccc(C(F)(F)F)c2Cl)CC(c2ccccc2)c2ccccc2)c1
EC50 ([5]; read-out: EC50): 1300 nM | fold change (FC) (HepG2 [1]): 4.9 | fold change (FC) (HepG2 [2]): 15 | EC50 ([4]; read-out: EC50): 420 nM | Ratio (HepG2 [3]): 3.1

CCCc1cc2c(C(F)(F)F)cc(=O)oc2c(CCC)c1OCCCCN1C(=O)NC(C)(c2cccc(OC)c2)C1=O (centres undefined)
EC50 ([5]; cho-k1): Not Active | EC50 ([4]; cho-k1): Not Active

CCCc1c(OCCCCN2C(=O)NC(C)(c3ccc(OC)c(OC)c3)C2=O)ccc2c(C(F)(F)F)cc(=O)oc12 (centres undefined)
EC50 ([5]; cho-k1): Not Active | EC50 ([4]; read-out: EC50): 3000 nM

CCCc1cc2c(C(F)(F)F)cc(=O)oc2c(CCC)c1OCCCCN1C(=O)CCC1=O
EC50 ([4]; read-out: EC50): 1400 nM

CCCc1cc2c(C(F)(F)F)cc(=O)oc2c(CCC)c1OCCCCN1C(=O)NC(C)(c2ccc3c(c2)OCO3)C1=O (centres undefined)
EC50 ([4]; read-out: EC50): 1200 nM

O=S(=O)(c1ccccc1)N(CC(F)(F)F)c1ccc(C(O)(C(F)(F)F)C(F)(F)F)cc1 [T091317]
fold change (FC) (Hamster [6]): 3 | Activity (Hamster [7]): 50% | Activity (Hamster [8]): 52% | Activity (Hamster [9]): 123% | Activity (Hamster [10]): 243% | Activity (Hamster [11]): 59% | Activity (Hamster [12]): 127% | Activity (Hamster [13]): 206% | Activity (Hamster [14]): 67% | Activity (Hamster [15]): 53%

CCCc1cc2c(C(F)(F)F)cc(=O)oc2c(CCC)c1OCCCCN1C(=O)NC(C)(c2ccc(OC)c(OC)c2)C1=O (centres undefined)
EC50 ([5]; cho-k1): Not Active | EC50 ([4]; cho-k1): Not Active

CCCc1cc2c(C(F)(F)F)cc(=O)oc2c(CCC)c1OCCCCN1C(=O)NC(C)(c2ccccc2OC)C1=O (centres undefined)
EC50 ([5]; cho-k1): Not Active | EC50 ([4]; cho-k1): Not Active

CCCc1cc2c(C(F)(F)F)cc(=O)oc2c(CCC)c1OCCCCN1C(=O)NC(C)(c2ccc(OC)cc2)C1=O (centres undefined)
EC50 ([5]; cho-k1): Not Active | EC50 ([4]; read-out: EC50): 960 nM

CCCc1cc2c(C(F)(F)F)cc(=O)oc2c(CCC)c1OCCCCN1C(=O)NC(C)(c2ccc([N+](=O)[O-])cc2)C1=O (centres undefined)
EC50 ([5]; cho-k1): Not Active | EC50 ([4]; read-out: EC50): 8000 nM

CCCc1cc2c(C(F)(F)F)cc(=O)oc2c(CCC)c1OCCCCN1C(=O)C(C)N(C)C1=O (centres undefined)
EC50 ([5]; read-out: EC50): 1700 nM | EC50 ([4]; read-out: EC50): 1300 nM

CCCc1cc2c(C(F)(F)F)cc(=O)oc2c(CCC)c1OCCCCN1C(=O)NC(C)(c2ccc(O)cc2)C1=O (centres undefined)
EC50 ([5]; cho-k1): Not Active | EC50 ([4]; cho-k1): Not Active

CCCc1c(OCCCN2C(=O)CSC2=O)ccc2c(C(F)(F)F)noc12
EC50 ([5]; read-out: EC50): 1300 nM | EC50 ([4]; read-out: EC50): 690 nM

CC(C)c1cc(=O)oc2c3c4c(cc12)CCCN4CCC3
fold change (FC) (HepG2 [1]): 1.4 | fold change (FC) (HepG2 [2]): 5 | Ratio (HepG2 [3]): 3.6

CCCc1cc2c(C(F)(F)F)cc(=O)oc2c(CCC)c1OCCCCN1C(=O)NC(C)C1=O (centres undefined)
EC50 ([5]; read-out: EC50): 1500 nM | EC50 ([4]; read-out: EC50): 1300 nM

Source: ChEMBL document CHEMBL3399967, “Design and discovery of 2-oxochromene derivatives as liver X receptor β-selective agonists” (Bioorg Med Chem Lett, 2015)
